Assay results from patent publication US20140155384A1, “COMPOUNDS AND METHODS OF TREATING DIABETES” (Medivation Technologies, Inc., priority 2011, published 2014).

Tests used:
[1] = molecular target: T1, human recombinant adrenergic α1D receptor (Homo sapiens, UniProt P25100); assay: Radioligand binding, adrenergic α1D receptor ([3H]Prazosin); conditions: 0.1 μM compound; HEK-293 cells; 0.6 nM [3H]Prazosin; read-out: Percentage inhibition of ligand binding, Adrenergic α1D
T1 construct: expressed in transfected cells; host or cells: HEK-293
T1 sequence (P25100 1-572): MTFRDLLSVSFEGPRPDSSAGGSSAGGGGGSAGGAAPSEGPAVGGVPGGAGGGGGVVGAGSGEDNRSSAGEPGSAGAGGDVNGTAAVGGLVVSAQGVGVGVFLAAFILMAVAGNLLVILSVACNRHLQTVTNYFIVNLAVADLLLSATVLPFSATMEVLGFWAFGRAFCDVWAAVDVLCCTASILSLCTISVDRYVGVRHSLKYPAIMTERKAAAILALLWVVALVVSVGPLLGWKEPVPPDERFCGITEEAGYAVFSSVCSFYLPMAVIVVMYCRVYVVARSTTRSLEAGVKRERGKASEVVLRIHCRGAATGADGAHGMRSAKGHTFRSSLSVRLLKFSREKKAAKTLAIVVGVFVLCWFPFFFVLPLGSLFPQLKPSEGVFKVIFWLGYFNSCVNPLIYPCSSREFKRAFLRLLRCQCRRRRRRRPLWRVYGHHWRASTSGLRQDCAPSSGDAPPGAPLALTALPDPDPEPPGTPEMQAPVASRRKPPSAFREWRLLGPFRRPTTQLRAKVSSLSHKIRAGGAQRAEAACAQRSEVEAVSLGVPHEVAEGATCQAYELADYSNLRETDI
Procedure: Compounds were incubated with 0.6 nM [3H]Prazosin for 60 min at 25° C. Non-specific binding was estimated in the presence of 10 μM phentolamine. Receptor proteins were filtered and washed, the filters were then counted to determine [3H]Prazosin specifically bound. Compounds were screened at 1 μM or lower, using 1% DMSO as vehicle. Biochemical assay results are presented as the percent inhibition of specific binding in Table 2.

[2] = molecular target: T2, human recombinant adrenergic α2B receptor (Homo sapiens, UniProt P18089); assay: Radioligand binding, adrenergic α2B receptor ([3H]Rauwolscine); conditions: 0.1 μM compound, CHO-K1 cells, read-out: Percentage inhibition of ligand binding, Adrenergic α2B
T2 construct: expressed in transfected cells; host or cells: CHO-K1
T2 sequence (P18089 1-450): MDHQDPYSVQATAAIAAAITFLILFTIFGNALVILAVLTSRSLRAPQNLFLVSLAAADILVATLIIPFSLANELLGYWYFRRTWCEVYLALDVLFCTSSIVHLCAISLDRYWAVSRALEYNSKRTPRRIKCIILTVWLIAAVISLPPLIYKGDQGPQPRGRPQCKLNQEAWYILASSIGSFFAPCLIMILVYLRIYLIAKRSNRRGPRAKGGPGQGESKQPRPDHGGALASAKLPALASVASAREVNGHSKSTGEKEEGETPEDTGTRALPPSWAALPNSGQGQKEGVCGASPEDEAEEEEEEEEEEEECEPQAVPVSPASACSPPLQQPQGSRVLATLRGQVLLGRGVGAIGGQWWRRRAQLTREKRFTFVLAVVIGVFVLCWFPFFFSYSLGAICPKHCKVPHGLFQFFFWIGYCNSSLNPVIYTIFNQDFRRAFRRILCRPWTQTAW
Procedure, shortened: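 Percent inhibition of specific [3H]Rauwolscine (2.5 nM) binding, compounds at ≤1 μM, 1% DMSO vehicle, 10 μM prazosin defining nonspecific. Receptor: human α2B expressed in CHO-K1 cells, 60 min incubation at 25 °C in Tris-HCl pH 7.4 buffer (MgCl2, EDTA, BSA); filtered, washed, counted.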

[3] = molecular target: T3, human recombinant adrenergic α2A receptor (Homo sapiens, UniProt P08913); assay: Radioligand binding, adrenergic α2A receptor ([3H]MK-912); conditions: 0.1 μM compound; Sf9 cells; 1 nM [3H]MK-912; read-out: Percentage inhibition of ligand binding, Adrenergic α2A
T3 construct: expressed in transfected cells; host or cells: insect Sf9 cells
T3 sequence (P08913 1-465): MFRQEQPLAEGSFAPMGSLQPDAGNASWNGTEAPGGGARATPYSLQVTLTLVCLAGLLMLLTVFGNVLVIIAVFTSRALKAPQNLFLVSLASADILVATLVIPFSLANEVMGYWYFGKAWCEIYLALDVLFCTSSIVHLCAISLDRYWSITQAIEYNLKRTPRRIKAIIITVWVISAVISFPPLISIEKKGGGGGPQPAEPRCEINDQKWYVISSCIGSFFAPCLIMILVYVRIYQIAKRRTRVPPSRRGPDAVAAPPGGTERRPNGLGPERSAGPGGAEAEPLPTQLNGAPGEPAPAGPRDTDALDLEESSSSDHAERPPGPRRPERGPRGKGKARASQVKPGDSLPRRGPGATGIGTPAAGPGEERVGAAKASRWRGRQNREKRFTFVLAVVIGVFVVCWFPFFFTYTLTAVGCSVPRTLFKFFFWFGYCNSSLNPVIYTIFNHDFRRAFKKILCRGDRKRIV
Procedure, shortened: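 Percent inhibition of specific [3H]MK-912 (1 nM) binding measured by filtration counting, compounds tested at ≤1 μM in 1% DMSO. Receptor: human α2A from Sf9 cells; incubation 60 min, 25 °C, pH 7.4; 10 μM WB-4101 defined nonspecific binding.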

[4] = molecular target: T4, rat adrenergic α1B receptor (Rattus norvegicus, UniProt P15823); assay: Radioligand binding, adrenergic α1B receptor ([3H]Prazosin); conditions: 0.1 μM compound, Wistar rat liver, read-out: Percentage inhibition of ligand binding, Adrenergic α1B
T4 construct: rat adrenergic α1B receptor obtained from Wistar Rat liver; from tissue; host or cells: Wistar rat liver
T4 sequence (P15823 1-515): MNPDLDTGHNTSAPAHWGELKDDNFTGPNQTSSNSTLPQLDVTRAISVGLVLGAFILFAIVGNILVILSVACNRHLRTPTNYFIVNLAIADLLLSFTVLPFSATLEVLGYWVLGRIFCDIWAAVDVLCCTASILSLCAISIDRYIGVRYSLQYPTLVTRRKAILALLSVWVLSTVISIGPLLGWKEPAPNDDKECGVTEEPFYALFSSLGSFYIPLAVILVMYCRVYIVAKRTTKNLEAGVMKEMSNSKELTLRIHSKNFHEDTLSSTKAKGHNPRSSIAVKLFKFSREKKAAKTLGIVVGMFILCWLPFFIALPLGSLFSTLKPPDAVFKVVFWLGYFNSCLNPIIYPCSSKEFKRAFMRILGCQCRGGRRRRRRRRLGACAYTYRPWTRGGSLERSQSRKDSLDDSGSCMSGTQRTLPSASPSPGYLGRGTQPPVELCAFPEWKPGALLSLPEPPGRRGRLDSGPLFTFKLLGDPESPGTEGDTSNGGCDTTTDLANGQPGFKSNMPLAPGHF
Procedure, shortened: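 Wistar rat liver α1B receptor preparation incubated with 0.25 nM [3H]prazosin and compound for 60 min at 25° C in 50 mM Tris-HCl pH 7.4, 0.5 mM EDTA; nonspecific binding defined with 10 μM phentolamine.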

inhibition at 0.1 µM [1] | inhibition at 0.1 µM [2] | inhibition at 0.1 µM [3] | inhibition at 0.1 µM [4] | Compound
73% | 83% | 71% | 86% | Cc1ccc2c(c1)c1c(n2-c2ccc(-c3ccc(S(N)(=O)=O)cc3)cn2)CCN(C)C1 [Compound No. 145, 4-(6-(2,8-dimethyl-3,4-dihydro-1H-pyrido[4,3-b]indol-5(2H)-yl)pyridin-3-yl)benzenesulfonamide]
79% | 54% | 26% | 70% | Cc1ccc2c(c1)c1c(n2-c2ccc(-c3ccnn3C)cn2)CCN(C)C1 [Compound No. 146, 2,8-dimethyl-5-(5-(1-methyl-1H-pyrazol-5-yl)pyridin-2-yl)-2,3,4,5-tetrahydro-1H-pyrido[4,3-b]indole]
61% | 43% | 46% | 72% | Cc1ccc2c(c1)c1c(n2-c2ccc(-c3cccc4[nH]ncc34)cn2)CCN(C)C1 [Compound No. 147, 5-(5-(1H-indazol-4-yl)pyridin-2-yl)-2,8-dimethyl-2,3,4,5-tetrahydro-1H-pyrido[4,3-b]indole]
68% | 90% | 50% | 63% | Cc1ccc2c(c1)c1c(n2-c2ccc(-c3sccc3C)cn2)CCN(C)C1 [Compound No. 148, 2,8-dimethyl-5-(5-(3-methylthiophen-2-yl)pyridin-2-yl)-2,3,4,5-tetrahydro-1H-pyrido[4,3-b]indole]
8% | 14% | -6% | 16% | Cc1cc(C)c2c(c1)c1c(n2-c2cscc2-c2ccncc2)CCN(C)C1 [Compound No. 149]
73% | 77% | 55% | 72% | Cc1ccc2c(c1)c1c(n2-c2cscc2-c2ccnn2C)CCN(C)C1 [Compound No. 150]
67% | 99% | 96% | 59% | Cc1ccc2c(c1)c1c(n2-c2cscc2-c2cc3ccccc3s2)CCN(C)C1 [Compound No. 151]
16% | 51% | 9% | 10% | Cc1ccc2c(c1)c1c(n2-c2cscc2C(=O)N(C)C)CCN(C)C1 [Compound No. 152]
70% | 42% | 20% | 46% | CNC(=O)c1cccc(-c2cscc2-n2c3c(c4cc(C)ccc42)CN(C)CC3)c1 [Compound No. 154]
63% | 74% | 9% | 43% | CNC(=O)c1ccc(-c2cscc2-n2c3c(c4cc(C)ccc42)CN(C)CC3)cc1 [Compound No. 155]
69% | 78% | 40% | 78% | Cc1ccc2c(c1)c1c(n2-c2ccc(-c3ccc(C)nc3)cn2)CCN(C)C1 [Compound No. 156, 2,8-dimethyl-5-(6′-methyl-3,3′-bipyridin-6-yl)-2,3,4,5-tetrahydro-1H-pyrido[4,3-b]indole]
13% | 60% | 8% | 22% | Cc1ccc2c(c1)c1c(n2-c2ccc3nc(C)ccc3c2)CCN(C)C1 [Compound No. 157, 2,8-dimethyl-5-(2-methyl-quinolin-6-yl)-2,3,4,5-tetrahydro-1H-pyrido[4,3-b]indole]
14% | 60% | 73% | 7% | Cc1ccc2c(c1)c1c(n2-c2cccc(-c3ccc(S(N)(=O)=O)cc3)c2)CCN(C)C1 [Compound No. 158, 3′-(2,8-dimethyl-3,4-dihydro-1H-pyrido[4,3-b]indol-5(2H)-yl)biphenyl-4-sulfonamide]
